Laboratory results taken from article PMC9329436, “Optimization of the 4-anilinoquin(az)oline scaffold as epidermal growth factor receptor (EGFR) inhibitors for chordoma utilizing a toxicology profiling assay platform” (Scientific Reports, 2022).
Like-named read-outs stand apart in the source and are kept apart here.

What was measured:
Format in all cases: biochemical
[1] = biological target: T1, 320 wild-type protein kinases (Homo sapiens, UniProt O00141); conditions: kinase SGK1, singlicate
T1 sequence (O00141 1-431): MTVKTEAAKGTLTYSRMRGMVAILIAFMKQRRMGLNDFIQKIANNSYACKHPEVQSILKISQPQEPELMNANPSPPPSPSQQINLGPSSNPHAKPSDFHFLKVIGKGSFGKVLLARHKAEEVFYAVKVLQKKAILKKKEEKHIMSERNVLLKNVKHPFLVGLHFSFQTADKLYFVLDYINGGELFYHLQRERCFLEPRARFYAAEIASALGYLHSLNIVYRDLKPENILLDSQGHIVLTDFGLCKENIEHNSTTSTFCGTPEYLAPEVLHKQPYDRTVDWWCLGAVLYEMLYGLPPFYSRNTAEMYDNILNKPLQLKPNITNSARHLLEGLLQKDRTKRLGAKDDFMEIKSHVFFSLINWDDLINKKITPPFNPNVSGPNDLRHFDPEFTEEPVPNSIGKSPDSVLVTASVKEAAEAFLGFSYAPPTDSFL
From the text: (§1) Table S4. Profiling of two compounds at two concentrations against 320 wild-type protein kinases; singlicate measurement; Residual activities (% of control).

[2] = biological target: T2, 320 wild-type protein kinases (Homo sapiens, UniProt O15146); conditions: MUSK, singlicate
T2 sequence (O15146 24-869): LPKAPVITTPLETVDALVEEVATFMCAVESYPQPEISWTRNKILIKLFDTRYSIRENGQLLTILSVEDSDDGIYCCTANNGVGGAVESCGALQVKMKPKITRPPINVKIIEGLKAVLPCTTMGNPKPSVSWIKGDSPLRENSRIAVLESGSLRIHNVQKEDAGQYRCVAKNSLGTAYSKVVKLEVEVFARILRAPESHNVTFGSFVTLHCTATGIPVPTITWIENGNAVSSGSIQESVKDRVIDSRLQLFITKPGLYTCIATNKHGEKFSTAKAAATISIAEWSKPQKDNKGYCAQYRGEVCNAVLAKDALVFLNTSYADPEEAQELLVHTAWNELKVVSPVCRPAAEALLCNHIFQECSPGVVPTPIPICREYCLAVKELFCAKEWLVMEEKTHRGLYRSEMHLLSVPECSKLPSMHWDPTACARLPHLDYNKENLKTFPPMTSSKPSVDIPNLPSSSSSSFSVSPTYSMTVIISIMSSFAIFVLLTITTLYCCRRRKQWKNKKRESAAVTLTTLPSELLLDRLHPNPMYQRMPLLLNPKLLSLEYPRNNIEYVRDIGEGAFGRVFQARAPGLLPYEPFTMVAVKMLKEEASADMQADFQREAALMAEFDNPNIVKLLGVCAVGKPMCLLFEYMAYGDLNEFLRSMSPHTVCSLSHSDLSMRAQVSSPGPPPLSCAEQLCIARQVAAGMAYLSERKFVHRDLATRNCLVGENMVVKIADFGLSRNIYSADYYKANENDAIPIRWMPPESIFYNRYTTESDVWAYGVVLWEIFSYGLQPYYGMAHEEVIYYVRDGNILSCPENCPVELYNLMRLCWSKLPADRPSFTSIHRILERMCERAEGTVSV
From the text: as §1

[3] = biological target: T3, 320 wild-type protein kinases (Homo sapiens, UniProt Q02156); conditions: PKC-epsilon, singlicate
T3 sequence (Q02156 1-737): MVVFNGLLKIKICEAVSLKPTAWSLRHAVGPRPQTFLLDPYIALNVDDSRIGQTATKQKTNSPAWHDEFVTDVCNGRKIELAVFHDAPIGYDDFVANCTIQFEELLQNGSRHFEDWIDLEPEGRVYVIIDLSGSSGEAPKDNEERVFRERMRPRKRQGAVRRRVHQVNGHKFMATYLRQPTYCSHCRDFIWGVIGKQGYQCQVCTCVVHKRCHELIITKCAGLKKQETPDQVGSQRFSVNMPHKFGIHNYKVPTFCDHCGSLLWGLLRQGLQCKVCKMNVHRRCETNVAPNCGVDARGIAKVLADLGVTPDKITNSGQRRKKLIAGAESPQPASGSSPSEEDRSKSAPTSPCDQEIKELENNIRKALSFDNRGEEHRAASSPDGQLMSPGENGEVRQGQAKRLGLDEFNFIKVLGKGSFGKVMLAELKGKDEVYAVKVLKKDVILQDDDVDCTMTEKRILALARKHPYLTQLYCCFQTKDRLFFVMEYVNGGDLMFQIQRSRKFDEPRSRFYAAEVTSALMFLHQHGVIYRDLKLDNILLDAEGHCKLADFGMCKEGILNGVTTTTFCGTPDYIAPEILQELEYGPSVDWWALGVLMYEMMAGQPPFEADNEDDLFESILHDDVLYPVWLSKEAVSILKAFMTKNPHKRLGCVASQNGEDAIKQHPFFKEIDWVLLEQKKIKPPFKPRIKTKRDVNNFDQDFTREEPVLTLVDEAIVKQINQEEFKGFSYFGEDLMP
From the text: as §1

[4] = biological target: T4, 320 wild-type protein kinases (Homo sapiens, UniProt Q8NG66); conditions: singlicate
T4 sequence (Q8NG66 1-645): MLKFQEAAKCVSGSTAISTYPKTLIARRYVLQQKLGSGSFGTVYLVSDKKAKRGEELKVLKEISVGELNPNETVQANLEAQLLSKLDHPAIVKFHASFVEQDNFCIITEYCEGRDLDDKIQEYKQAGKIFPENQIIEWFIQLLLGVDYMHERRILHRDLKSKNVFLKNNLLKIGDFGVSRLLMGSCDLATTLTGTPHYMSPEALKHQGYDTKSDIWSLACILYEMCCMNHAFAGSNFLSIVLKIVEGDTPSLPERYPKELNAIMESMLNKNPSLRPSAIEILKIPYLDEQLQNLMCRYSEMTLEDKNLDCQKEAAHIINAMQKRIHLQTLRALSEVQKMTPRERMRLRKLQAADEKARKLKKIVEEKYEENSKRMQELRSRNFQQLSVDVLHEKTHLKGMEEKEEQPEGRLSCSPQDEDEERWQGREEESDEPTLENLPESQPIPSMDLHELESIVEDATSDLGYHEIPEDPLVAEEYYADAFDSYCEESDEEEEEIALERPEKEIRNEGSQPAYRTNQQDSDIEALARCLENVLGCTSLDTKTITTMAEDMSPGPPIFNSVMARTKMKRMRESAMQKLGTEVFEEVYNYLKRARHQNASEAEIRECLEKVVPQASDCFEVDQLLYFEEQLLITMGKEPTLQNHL
From the text: as §1

| SMILES | Residual activity, SGK1 ([1]; assay conc. 1.0E-06 M) | Residual activity, SGK1 ([1]; assay conc. 1.0E-07 M) | Residual activity ([2]; 1.0E-06 M) | Residual activity ([2]; 1.0E-07 M) | Residual activity ([3]; 1.0E-06 M) | Residual activity ([3]; 1.0E-07 M) | Residual activity ([4]; NEK11, 1.0E-06 M) | Residual activity ([4]; NEK11, 1.0E-07 M) |
| --- | --- | --- | --- | --- | --- | --- | --- | --- |
| C#Cc1cc(Nc2ncnc3cc(I)ccc23)ccc1Cl [Compound 41] | 77 % of control | 103 % of control | 96 % of control | 94 % of control | 89 % of control | 82 % of control | 95 % of control | 82 % of control |
| C#Cc1cc(Nc2ncnc3cc(OC)c(OC)cc23)ccc1Cl [Compound 45] | 88 % of control | 99 % of control | 87 % of control | 94 % of control | 88 % of control | 89 % of control | 103 % of control | 106 % of control |
